Measurements as given in ChEMBL document CHEMBL5096162, “A review on ferulic acid and analogs based scaffolds for the management of Alzheimer's disease” (Eur J Med Chem, 2021).

Columns and labels:
[1] = Antioxidant activity assessed as DPPH radical scavenging activity measured for 30 mins in dark by UV-Vis spectrophotometric analysis; assay type: functional
Cholinesterase [2] = target: T1, Cholinesterase (Homo sapiens, UniProt P06276); experiment: Inhibition of human BuchE using butyrylthiocholine iodide as substrate by Ellman colorimetric assay
T1 sequence (P06276 whole entry): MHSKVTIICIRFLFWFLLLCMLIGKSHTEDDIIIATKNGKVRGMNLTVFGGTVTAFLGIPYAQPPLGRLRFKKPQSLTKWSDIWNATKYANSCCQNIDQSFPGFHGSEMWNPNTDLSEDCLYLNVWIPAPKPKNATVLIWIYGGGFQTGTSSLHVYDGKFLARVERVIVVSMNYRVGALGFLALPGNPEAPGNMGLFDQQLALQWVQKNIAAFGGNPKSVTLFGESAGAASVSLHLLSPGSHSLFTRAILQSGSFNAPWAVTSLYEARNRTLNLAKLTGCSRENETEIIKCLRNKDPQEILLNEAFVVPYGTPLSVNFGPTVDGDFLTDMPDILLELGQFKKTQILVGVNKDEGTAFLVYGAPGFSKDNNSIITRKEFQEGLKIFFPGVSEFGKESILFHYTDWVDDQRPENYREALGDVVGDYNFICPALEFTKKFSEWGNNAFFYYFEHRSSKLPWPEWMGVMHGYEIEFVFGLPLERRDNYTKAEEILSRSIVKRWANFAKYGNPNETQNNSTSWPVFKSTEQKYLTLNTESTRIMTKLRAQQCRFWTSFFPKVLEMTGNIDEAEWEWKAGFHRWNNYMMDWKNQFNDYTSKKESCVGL

SH-SY5Y [3] = experiment: Neuroprotective activity against amyloid beta-induced cytotoxicity in human SH-SY5Y cells assessed as cell viability at 10 to 80 uM by MTT assay; assay type: functional; conditions: dose 10-80 µM
Beta-secretase 1 = Beta-secretase 1 (Homo sapiens, UniProt P56817); experiment: Inhibition of human BACE-1 by FRET-based fluorometric assay
Beta-secretase 1, sequence (P56817 whole entry): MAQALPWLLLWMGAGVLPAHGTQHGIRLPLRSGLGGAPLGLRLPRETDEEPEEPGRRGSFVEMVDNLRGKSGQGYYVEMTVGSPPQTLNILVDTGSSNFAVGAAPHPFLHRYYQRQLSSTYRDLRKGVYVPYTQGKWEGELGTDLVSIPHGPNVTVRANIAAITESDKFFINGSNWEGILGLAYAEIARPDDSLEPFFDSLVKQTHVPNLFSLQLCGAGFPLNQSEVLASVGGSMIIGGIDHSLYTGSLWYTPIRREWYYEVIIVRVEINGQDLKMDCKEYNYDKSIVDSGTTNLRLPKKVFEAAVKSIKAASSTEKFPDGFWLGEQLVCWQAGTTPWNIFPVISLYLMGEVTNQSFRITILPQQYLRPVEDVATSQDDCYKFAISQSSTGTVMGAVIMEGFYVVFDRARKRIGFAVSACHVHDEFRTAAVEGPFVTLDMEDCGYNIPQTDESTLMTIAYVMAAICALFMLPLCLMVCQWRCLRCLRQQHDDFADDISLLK

Acetylcholinesterase [4] = target: T2, Acetylcholinesterase (Homo sapiens, UniProt P22303); experiment: Inhibition of human AchE using acetylthiocholine iodide as substrate by Ellman colorimetric assay
T2 sequence (P22303 whole entry): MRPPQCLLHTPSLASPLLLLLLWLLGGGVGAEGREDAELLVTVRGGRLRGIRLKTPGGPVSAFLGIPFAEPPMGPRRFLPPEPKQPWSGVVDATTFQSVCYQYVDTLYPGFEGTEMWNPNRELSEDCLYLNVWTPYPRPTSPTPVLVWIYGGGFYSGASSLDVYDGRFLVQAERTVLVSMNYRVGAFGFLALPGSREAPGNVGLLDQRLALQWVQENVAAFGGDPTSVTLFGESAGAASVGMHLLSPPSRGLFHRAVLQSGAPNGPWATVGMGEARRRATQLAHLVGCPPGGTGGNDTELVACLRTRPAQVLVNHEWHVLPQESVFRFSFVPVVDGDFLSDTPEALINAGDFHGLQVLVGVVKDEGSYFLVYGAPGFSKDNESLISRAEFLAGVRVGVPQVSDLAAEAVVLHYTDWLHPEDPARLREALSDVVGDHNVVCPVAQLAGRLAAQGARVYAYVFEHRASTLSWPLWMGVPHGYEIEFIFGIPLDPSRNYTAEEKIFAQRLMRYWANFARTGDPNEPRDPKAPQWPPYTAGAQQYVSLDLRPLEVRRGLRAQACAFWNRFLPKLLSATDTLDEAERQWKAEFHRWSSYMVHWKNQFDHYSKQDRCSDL

[5] = Antioxidant activity assessed as trolox equivalent of ORAC radical scavenging activity by ORAC-FL assay; assay type: functional
Cholinesterase [6] = target: T3, Cholinesterase (Equus caballus, UniProt P81908); experiment: Inhibition of equine BuChE by Ellman's method
T3 sequence (P81908 whole entry): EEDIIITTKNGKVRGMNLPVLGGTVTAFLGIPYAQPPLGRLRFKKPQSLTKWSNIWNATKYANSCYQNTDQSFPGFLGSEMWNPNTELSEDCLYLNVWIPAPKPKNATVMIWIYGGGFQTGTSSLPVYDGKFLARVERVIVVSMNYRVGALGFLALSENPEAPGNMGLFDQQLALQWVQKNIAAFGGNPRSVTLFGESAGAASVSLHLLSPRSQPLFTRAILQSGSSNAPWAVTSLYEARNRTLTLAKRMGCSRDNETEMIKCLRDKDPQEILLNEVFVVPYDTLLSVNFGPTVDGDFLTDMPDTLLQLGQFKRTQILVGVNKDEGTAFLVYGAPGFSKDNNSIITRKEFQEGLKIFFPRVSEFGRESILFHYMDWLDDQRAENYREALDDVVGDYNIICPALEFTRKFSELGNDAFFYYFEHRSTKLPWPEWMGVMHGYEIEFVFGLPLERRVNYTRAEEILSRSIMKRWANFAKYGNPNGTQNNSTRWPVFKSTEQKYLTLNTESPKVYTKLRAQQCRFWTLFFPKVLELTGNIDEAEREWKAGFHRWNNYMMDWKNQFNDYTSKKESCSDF

HT-22 = experiment: Neuroprotection against iodoacetic acid-induced ATP depletion in mouse HT-22 cells assessed as increase in cell viability at 1 uM incubated for 2 hrs in medium with compound and iodoacetic acid followed by medium change with compound and measured after 24 hrs by MTT assay; assay type: functional; conditions: time 26 hrs
Cholinesterase [7] = target: T3, Cholinesterase; experiment: Inhibition of equine serum BuChE preincubated for 5 mins followed by substrate addition and measured after 5 mins using S-butyrylthiocholine iodide as substrate by Ellman's method
[8] = target: Amyloid-beta precursor protein (Homo sapiens) (UniProt P05067); experiment: Inhibition of amyloid beta (1 to 42) (unknown origin) self aggregation assessed as reduction in fluorescence intensity at 20 uM incubated for 24 hrs by ThT-based fluorimetric assay
Amyloid-beta precursor protein (Homo sapiens), sequence (P05067 whole entry): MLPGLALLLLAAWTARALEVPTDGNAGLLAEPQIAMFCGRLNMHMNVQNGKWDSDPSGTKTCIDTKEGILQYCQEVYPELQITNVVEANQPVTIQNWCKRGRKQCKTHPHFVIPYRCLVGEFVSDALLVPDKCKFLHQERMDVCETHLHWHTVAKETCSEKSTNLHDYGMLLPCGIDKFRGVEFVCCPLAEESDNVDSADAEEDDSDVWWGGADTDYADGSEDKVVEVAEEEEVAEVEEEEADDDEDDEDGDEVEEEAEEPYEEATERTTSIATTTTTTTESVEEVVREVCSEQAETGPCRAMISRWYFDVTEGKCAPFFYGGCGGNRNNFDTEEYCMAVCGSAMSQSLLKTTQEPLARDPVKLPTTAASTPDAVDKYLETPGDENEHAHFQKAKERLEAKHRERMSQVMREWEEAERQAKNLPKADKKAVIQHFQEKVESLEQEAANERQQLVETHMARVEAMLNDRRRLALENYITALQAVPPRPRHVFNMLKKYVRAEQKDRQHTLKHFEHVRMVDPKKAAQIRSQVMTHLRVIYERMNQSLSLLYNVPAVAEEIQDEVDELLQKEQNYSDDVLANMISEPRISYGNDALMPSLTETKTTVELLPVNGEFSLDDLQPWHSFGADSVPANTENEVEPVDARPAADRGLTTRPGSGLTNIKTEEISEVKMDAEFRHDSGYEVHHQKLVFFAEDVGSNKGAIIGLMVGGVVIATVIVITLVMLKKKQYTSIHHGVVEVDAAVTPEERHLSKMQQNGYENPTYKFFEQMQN

Cholinesterase [9] = target: T1, Cholinesterase; experiment: Inhibition of human BuchE preincubated for 30 mins followed by substrate addition using butyrylthiocholine iodide as substrate by Ellman's method
Acetylcholinesterase [10] = target: T4, Acetylcholinesterase (Electrophorus electricus, UniProt O42275); experiment: Inhibition of electric eel AChE preincubated for 15 mins followed by substrate addition using acetylthiocholine iodide as substrate by Ellman's method
T4 sequence (O42275 whole entry): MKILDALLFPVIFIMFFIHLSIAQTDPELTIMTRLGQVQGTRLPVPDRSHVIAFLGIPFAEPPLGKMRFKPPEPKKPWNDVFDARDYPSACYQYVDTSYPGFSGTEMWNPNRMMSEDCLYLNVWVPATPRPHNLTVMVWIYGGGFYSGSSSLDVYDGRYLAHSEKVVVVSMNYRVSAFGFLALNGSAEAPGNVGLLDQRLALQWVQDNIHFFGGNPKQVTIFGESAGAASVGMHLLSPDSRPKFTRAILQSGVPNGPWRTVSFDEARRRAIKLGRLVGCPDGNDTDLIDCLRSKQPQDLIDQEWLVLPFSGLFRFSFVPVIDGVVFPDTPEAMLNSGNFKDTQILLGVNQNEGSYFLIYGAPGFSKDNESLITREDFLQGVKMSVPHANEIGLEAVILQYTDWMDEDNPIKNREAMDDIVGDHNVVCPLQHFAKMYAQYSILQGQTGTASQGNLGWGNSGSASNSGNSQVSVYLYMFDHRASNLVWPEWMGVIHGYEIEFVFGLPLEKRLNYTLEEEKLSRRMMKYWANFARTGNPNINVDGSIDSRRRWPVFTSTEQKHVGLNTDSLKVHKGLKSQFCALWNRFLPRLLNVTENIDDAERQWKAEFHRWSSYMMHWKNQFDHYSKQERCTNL

[11] = Antioxidant activity assessed as DPPH radical scavenging activity at 1 mM incubated for 30 mins by microplate reader method; assay type: functional
[12] = target: Amyloid-beta precursor protein (Homo sapiens) (UniProt P05067); experiment: Inhibition of amyloid beta (1 to 42) (unknown origin) self aggregation assessed as reduction in fluorescence intensity at 80 uM incubated for 24 hrs by ThT-based fluorimetric assay
[13] = Antioxidant activity assessed as DPPH radical scavenging activity at 200 uM incubated for 2 hrs in dark by spectrophotometric analysis; assay type: functional
[14] = Antioxidant activity of compound assessed as trolox equivalent of AAPH radical scavenging activity preincubated for 15 mins followed by AAPH addition and measured every 1 min for 60 mins by ORAC-FL assay; assay type: functional; conditions: time 75.0 min
[15] = Antioxidant activity assessed as DPPH radical scavenging activity incubated for 30 mins by UV-Vis spectrophotometric analysis; assay type: functional
[16] = Metal chelating activity assessed as Fe2+ -ferrozoine complex formation incubated for 10 mins followed by ferrozine addition and further incubated for 10 mins by spectrophotometric assay; conditions: time 20.0 min
[17] = Antioxidant activity assessed as trolox equivalent of ABTS radical cation scavenging activity measured after 6 mins by UV spectrophotometeric analysis; assay type: functional
Acetylcholinesterase [18] = target: T2, Acetylcholinesterase; experiment: Inhibition of human AchE preincubated for 6 mins followed by substrate addition and measured upto 3 mins using acetylthiocholine iodide as substrate by Ellman's method
Cholinesterase [19] = target: T1, Cholinesterase; experiment: Inhibition of human BuchE preincubated for 6 mins followed by substrate addition and measured upto 3 mins using acetylthiocholine iodide as substrate by Ellman's method
[20] = Antioxidant activity assessed as GO radical cation scavenging activity measured for 30 mins by spectrophotometeric analysis; assay type: functional
[21] = Antioxidant activity assessed as DPPH radical scavenging activity measured for 45 mins by spectrophotometric analysis; assay type: functional
[22] = Antioxidant activity assessed as ABTS radical cation scavenging activity measured every minute for 15 mins by spectrophotometeric analysis; assay type: functional
[23] = Antioxidant activity of compound assessed as trolox equivalent of AAPH radical scavenging activity preincubated for 15 mins followed by AAPH addition and measured for 120 mins by ORAC-FL assay; assay type: functional; conditions: time 135.0 min
[24] = Antioxidant activity of compound assessed as trolox equivalent of AAPH radical scavenging activity preincubated for 15 mins followed by AAPH addition and measured for 60 mins by ORAC-FL assay; assay type: functional; conditions: time 75.0 min
HepG2 [25] = experiment: Cytotoxicity against human HepG2 cells assessed reduction in cell viability at 1 uM by MTT assay; assay type: toxicity, cell-based; conditions: hepg2, 1 µM
[26] = target: Amyloid-beta precursor protein (Homo sapiens) (UniProt P05067); experiment: Inhibition of amyloid beta (1 to 42) (unknown origin) self aggregation assessed as reduction in fluorescence intensity at 50 uM incubated for 24 hrs by ThT-based fluorimetric assay
HepG2 [27] = experiment: Cytotoxicity against human HepG2 cells assessed reduction in cell viability at 1000 uM by MTT assay; assay type: toxicity, cell-based; conditions: hepg2, 1000 µM
Acetylcholinesterase [28] = target: T2, Acetylcholinesterase; experiment: Inhibition of human AchE preincubated for 20 mins followed by substrate addition using acetylthiocholine iodide as substrate by Ellman's method
SH-SY5Y [29] = experiment: Neuroprotective activity against amyloid beta (1 to 42)-induced cytotoxicity in human SH-SY5Y cells assessed as increase in cell viability at 10 uM incubated for 24 hrs by MTT assay; assay type: functional
[30] = target: Acetylcholinesterase (Electrophorus electricus) (UniProt O42275); experiment: Inhibition of electric eel AChE at 1 uM by Ellman's method
Acetylcholinesterase (Electrophorus electricus), sequence (O42275 24-633 limits assumed): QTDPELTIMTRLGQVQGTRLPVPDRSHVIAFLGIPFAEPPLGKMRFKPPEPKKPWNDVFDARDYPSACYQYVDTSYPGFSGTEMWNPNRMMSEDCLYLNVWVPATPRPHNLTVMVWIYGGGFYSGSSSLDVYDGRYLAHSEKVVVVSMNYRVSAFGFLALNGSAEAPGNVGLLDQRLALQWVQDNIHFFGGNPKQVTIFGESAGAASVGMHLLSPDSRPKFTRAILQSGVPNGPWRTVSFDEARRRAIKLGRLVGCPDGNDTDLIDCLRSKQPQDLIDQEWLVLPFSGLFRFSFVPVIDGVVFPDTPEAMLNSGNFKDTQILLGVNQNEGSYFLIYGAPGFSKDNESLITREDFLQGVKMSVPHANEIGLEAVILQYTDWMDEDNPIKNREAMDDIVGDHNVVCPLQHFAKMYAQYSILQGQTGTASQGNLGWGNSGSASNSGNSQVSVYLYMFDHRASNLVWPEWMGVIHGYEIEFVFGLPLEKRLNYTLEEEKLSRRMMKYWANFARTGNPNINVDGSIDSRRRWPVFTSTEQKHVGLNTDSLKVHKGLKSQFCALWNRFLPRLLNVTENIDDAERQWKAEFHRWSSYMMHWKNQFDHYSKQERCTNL

[31] = target: Cholinesterase (Equus caballus) (UniProt P81908); experiment: Inhibition of equine BuChE at 1 uM by Ellman's method
Cholinesterase (Equus caballus), sequence (P81908 whole entry): as the sequence (P81908 whole entry) above

[32] = target: Amyloid-beta precursor protein (Homo sapiens) (UniProt P05067); experiment: Inhibition of self-induced amyloid beta (1 to 40) (unknown origin) aggregation at 20 uM incubated for 48 hrs by ThT-based fluorimetric assay
Acetylcholinesterase [33] = target: T4, Acetylcholinesterase; experiment: Inhibition of electric eel AChE preincubated for 5 mins followed by substrate addition using acetylthiocholine iodide as substrate by Ellman's method
Cholinesterase [34] = target: T3, Cholinesterase; experiment: Inhibition of equine serum BuchE preincubated for 6 mins followed by substrate addition using butyrylthiocholine iodide as substrate by DTNB reagent based Ellman method
[35] = target: Amyloid-beta precursor protein (Homo sapiens) (UniProt P05067); experiment: Inhibition of self-induced amyloid beta (1 to 42) (unknown origin) aggregation at 20 uM incubated for 46 to 48 hrs in dark by ThT-based fluorimetric assay; conditions: time 46-48 hrs
Cholinesterase [36] = target: T1, Cholinesterase
Description: Inhibition of human BuchE preincubated for 6 mins followed by substrate addition using butyrylthiocholine iodide as substrate by DTNB reagent based Ellman method

O=C(/C=C/c1ccc(O)c(O)c1)Nc1cccc2ccccc12
IC50 [1]: 20800 nM

COc1cc(/C=C/c2nnc(-c3ccc(OC(F)(F)F)cc3)o2)ccc1O
IC50 (Cholinesterase [2]): 210 nM
Activity (SH-SY5Y [3]): 65.11%
IC50 (Beta-secretase 1): 210 nM
IC50 (Acetylcholinesterase [4]): 92 nM

COc1cc(/C=C/C(=O)O[C@H]2C[C@H]3O[C@H](OC(=O)NCc4ccccc4)C[C@H]3O2)ccc1O
Activity [5]: 0.635 equiv

COc1ccc2[nH]cc(CCNC(=O)CN(CCC3CCN(Cc4ccccc4)CC3)C(=O)/C=C/c3ccc(O)c(OC)c3)c2c1
IC50 (Cholinesterase [6]): 10.4 nM
Activity [5]: 8.71 equiv

O=C1c2c(O)cc(O)cc2O[C@H](c2ccc(O)c(O)c2)[C@H]1O [(+)-TAXIFOLIN]
Activity (HT-22): 10%

C=CCc1ccc(OC(=O)/C=C/c2ccc(O)c(O)c2)c(OC)c1
IC50 [1]: 11200 nM

O=C(/C=C/c1ccc(O)c(O)c1)NCCCCCC[P+](c1ccccc1)(c1ccccc1)c1ccccc1
IC50 (Cholinesterase [7]): 150 nM

CCNC(=O)O[C@@H]1C[C@H]2O[C@@H](OC(=O)CCCCC3CCSS3)C[C@H]2O1 (some centres undefined)
Activity [5]: 0.163 equiv

COC(=O)/C=C/c1ccc(OCCCCCN2CCN(CC(=O)Nc3c4c(nc5ccccc35)CCCC4)CC2)c(OC)c1
inhibition [8]: 37.2%

CCCCNC(=O)O[C@@H]1C[C@H]2O[C@@H](OC(=O)/C=C/c3ccc(O)c(OC)c3)C[C@H]2O1
IC50 (Cholinesterase [9]): 430 nM

O=C(/C=C/c1ccccc1)Oc1ccc2c(c1)O[C@H](c1ccc(O)c(O)c1)[C@@H](O)C2=O
Activity (HT-22): 40%

COc1ccc(/C=C/C(O)NCCCNc2c3c(nc4ccccc24)CCCC3)cc1OC (centres undefined)
IC50 (Acetylcholinesterase [10]): 90 nM
Activity [11]: 16.8%
inhibition [12]: 56.5%

O=C(CCCCC1CCSS1)O[C@H]1C[C@H]2O[C@H](OC(=O)NCc3ccccc3)C[C@H]2O1 (some centres undefined)
IC50 (Cholinesterase [9]): 150 nM

O=C(NCc1ccccc1)C(c1ccnc2ccccc12)N(Cc1ccccc1)C(=O)/C=C/c1ccc(O)c(O)c1 (centres undefined)
Activity [13]: > 77%
Activity [14]: 4.98 equiv

O=C(/C=C/CCc1ccc2c(c1)OCO2)NCCCNc1c2c(nc3ccccc13)CCCC2
IC50 (Acetylcholinesterase [10]): 130 nM
Activity [11]: 20.8%
inhibition [12]: 72.2%

CCCCNC(=O)O[C@@H]1C[C@H]2O[C@@H](OC(=O)CCCCC3CCSS3)C[C@H]2O1 (some centres undefined)
IC50 (Cholinesterase [9]): 170 nM

COc1ccc(/C=C/C(=O)NCCC2CCN(Cc3ccccc3)CC2)cc1O
IC50 [15]: 764000 nM

COCCCCCCCCCCCCCCCCCCOC(=O)/C=C/c1ccc(O)c(OC)c1
Activity [16]: 77.9%

COc1cc(/C=C/C(=O)OCCCCCN(C)Cc2cccc(OC(=O)N(C)C)c2)ccc1O
Activity [17]: 1.26 µM
IC50 (Acetylcholinesterase [18]): 19.7 nM
IC50 (Cholinesterase [19]): 0.59 nM

COc1cc(/C=C/C(=O)O)ccc1O [FERULATE]
IC50 [20]: 37500 nM
Activity [16]: 8.9%
IC50 [21]: 64600 nM
IC50 [22]: 16800 nM
Activity [23]: 0.34

O=C(/C=C/c1cc(O)c(O)c(O)c1)NCCCCCC[P+](c1ccccc1)(c1ccccc1)c1ccccc1
IC50 (Cholinesterase [7]): 110 nM

COc1ccc2nc3c(c(NCCCCCCCCN(CC(=O)Nc4ccc5ccccc5c4)C(=O)/C=C/c4ccc(O)c(OC)c4)c2c1)CCCC3
Activity [24]: 4.29 equiv
Activity (HepG2 [25]): 98.8%
inhibition [26]: 65.6%
Activity (HepG2 [27]): 59.4%
IC50 (Acetylcholinesterase [28]): 22.2 nM
Activity (SH-SY5Y [29]): 95.1%

COc1cc(/C=C/c2nnc(-c3ccc(C(F)(F)F)cc3)o2)ccc1O
IC50 (Cholinesterase [2]): 255 nM
Activity (SH-SY5Y [3]): 70.45%
IC50 (Beta-secretase 1): 255 nM
IC50 (Acetylcholinesterase [4]): 68 nM

COc1cc(/C=C/C(=O)N(CCC2CCN(Cc3ccccc3)CC2)CC(=O)Nc2c(C)cccc2Cl)ccc1O
Activity [5]: 6.9 equiv
inhibition [30]: 24.8%
inhibition [31]: 57.3%

O=C(NCc1ccccc1)C(c1cnc2ccccc2c1)N(Cc1ccccc1)C(=O)/C=C/c1ccc(O)c(O)c1 (centres undefined)
Activity [13]: 89.1%
inhibition [32]: 66.4%
Activity [14]: 5.48 equiv

COc1cc(/C=C/C(=O)NCCC2CCN(Cc3ccccc3)CC2)cc(OC)c1O
IC50 [15]: 24900 nM
IC50 (Acetylcholinesterase [33]): 390 nM
Activity [17]: 1.78 equiv

COc1cc(/C=C/C(=O)NCCC2CCN(Cc3ccccc3)CC2)ccc1O
IC50 [15]: 34100 nM
Activity [17]: 1.39 equiv

COc1cc(/C=C/C(=O)O)ccc1S
IC50 [20]: 4250 nM
IC50 [21]: 47800 nM
IC50 [22]: 19900 nM
Activity [23]: 0.34

COc1ccc(/C=C/C(=O)Nc2cc[n+](Cc3cccc(F)c3)cc2)cc1OC
IC50 (Cholinesterase [34]): 3.1 nM
inhibition [35]: 63.4%
IC50 (Cholinesterase [36]): 4.8 nM
